Source: ChEMBL document CHEMBL4630901 (2021)
pKi: −log10 of the molar value. Blank lines part the entries; values can stand above or below the compound they belong to. The source made the active and inactive calls. The rule behind the calls is not given here.

Experiments:
[1] = molecular target: Sodium-dependent noradrenaline transporter (Homo sapiens) (UniProt P23975); settings: Compound concentration 10.0 uM
[2] = molecular target: Prostaglandin F2-alpha receptor (Homo sapiens, UniProt P43088); experiment: Panlabs binding assay
[3] = molecular target: Sodium-dependent dopamine transporter (Homo sapiens) (UniProt Q01959); settings: Compound concentration 10.0 uM
Sequence of Sodium-dependent dopamine transporter (Homo sapiens) (Q01959 whole entry): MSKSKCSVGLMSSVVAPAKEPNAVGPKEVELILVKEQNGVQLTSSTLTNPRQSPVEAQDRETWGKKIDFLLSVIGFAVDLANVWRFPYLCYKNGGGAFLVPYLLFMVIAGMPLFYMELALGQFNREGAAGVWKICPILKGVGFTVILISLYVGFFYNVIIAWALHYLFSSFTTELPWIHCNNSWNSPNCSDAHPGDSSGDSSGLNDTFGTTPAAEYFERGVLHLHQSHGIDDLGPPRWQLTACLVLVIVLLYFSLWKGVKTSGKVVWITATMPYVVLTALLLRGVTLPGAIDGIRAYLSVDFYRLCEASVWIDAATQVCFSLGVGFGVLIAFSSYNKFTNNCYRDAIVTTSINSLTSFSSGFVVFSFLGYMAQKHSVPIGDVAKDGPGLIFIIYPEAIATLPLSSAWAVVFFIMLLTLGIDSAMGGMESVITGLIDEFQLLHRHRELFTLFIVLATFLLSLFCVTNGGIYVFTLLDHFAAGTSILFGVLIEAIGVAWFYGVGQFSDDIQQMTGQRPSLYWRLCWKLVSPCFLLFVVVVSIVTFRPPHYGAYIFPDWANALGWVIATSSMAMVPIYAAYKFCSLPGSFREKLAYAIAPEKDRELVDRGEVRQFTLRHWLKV

[4] = molecular target: Alpha-2B adrenergic receptor (Homo sapiens) (UniProt P18089); settings: Compound concentration 10.0 uM
Sequence of Alpha-2B adrenergic receptor (Homo sapiens) (P18089 whole entry): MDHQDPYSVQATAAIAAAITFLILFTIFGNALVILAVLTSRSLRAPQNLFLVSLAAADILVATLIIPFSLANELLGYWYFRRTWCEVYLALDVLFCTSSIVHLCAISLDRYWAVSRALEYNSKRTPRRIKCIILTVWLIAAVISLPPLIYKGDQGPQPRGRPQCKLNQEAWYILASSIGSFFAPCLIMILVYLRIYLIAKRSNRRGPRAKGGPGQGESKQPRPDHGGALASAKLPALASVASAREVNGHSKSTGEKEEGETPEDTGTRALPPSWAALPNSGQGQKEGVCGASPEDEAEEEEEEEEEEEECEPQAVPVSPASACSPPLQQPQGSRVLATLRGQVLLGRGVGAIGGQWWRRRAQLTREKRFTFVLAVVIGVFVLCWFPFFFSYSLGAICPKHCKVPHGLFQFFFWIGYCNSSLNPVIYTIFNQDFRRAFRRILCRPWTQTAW

[5] = molecular target: 5-hydroxytryptamine receptor 3A (Homo sapiens, UniProt P46098); experiment: GPCRScan assay: inhibition of 5-HT3; parameters: radioligand conc. used [nm] 1.0 – 2.0, parental cells HEKT
Sequence of 5-hydroxytryptamine receptor 3A (P46098 whole entry): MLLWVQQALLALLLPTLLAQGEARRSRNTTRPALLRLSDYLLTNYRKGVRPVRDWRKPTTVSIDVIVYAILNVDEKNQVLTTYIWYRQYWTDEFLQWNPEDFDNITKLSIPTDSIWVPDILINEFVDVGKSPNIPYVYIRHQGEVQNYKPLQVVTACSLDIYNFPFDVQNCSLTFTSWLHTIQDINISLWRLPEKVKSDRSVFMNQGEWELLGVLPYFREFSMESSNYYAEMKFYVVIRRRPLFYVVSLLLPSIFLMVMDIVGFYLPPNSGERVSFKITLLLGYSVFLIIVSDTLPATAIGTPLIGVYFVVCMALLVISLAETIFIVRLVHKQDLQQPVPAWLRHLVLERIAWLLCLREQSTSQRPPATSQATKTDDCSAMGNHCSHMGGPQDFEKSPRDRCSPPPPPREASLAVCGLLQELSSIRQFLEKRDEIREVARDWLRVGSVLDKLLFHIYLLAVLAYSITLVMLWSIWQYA

[6] = molecular target: T1, Muscarinic acetylcholine receptor M4 (Homo sapiens) (UniProt P08173); settings: Compound concentration 10.0 uM
T1 sequence (whole entry): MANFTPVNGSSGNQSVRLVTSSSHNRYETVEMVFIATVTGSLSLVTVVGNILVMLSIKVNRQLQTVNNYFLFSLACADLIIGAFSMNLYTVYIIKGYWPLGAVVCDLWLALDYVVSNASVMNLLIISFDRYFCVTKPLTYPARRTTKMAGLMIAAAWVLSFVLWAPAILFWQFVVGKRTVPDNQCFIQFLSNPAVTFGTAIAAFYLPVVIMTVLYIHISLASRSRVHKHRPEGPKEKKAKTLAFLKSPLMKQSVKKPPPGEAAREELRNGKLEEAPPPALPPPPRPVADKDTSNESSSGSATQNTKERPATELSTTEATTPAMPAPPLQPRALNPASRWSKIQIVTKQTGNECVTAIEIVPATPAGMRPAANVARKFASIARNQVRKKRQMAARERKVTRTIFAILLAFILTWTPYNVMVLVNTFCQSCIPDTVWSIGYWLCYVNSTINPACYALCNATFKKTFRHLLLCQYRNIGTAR

[7] = molecular target: Growth hormone secretagogue receptor type 1 (Homo sapiens) (UniProt Q92847); settings: Compound concentration 10.0 uM
Sequence of Growth hormone secretagogue receptor type 1 (Homo sapiens) (Q92847 whole entry): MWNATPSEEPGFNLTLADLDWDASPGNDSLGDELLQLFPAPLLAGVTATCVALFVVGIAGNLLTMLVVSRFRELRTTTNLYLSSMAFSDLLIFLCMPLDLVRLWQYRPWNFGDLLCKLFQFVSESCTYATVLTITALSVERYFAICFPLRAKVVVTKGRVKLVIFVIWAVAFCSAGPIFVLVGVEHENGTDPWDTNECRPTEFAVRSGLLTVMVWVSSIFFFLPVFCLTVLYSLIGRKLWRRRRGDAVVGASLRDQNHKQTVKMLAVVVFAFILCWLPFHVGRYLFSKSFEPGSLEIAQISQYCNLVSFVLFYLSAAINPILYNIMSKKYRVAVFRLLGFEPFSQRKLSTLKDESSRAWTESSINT

[8] = molecular target: Gamma-aminobutyric acid type B receptor subunit 1 (Homo sapiens) (UniProt Q9UBS5); settings: Rattus norvegicus; Compound concentration 10.0 uM
Sequence of Gamma-aminobutyric acid type B receptor subunit 1 (Homo sapiens) (Q9UBS5 whole entry): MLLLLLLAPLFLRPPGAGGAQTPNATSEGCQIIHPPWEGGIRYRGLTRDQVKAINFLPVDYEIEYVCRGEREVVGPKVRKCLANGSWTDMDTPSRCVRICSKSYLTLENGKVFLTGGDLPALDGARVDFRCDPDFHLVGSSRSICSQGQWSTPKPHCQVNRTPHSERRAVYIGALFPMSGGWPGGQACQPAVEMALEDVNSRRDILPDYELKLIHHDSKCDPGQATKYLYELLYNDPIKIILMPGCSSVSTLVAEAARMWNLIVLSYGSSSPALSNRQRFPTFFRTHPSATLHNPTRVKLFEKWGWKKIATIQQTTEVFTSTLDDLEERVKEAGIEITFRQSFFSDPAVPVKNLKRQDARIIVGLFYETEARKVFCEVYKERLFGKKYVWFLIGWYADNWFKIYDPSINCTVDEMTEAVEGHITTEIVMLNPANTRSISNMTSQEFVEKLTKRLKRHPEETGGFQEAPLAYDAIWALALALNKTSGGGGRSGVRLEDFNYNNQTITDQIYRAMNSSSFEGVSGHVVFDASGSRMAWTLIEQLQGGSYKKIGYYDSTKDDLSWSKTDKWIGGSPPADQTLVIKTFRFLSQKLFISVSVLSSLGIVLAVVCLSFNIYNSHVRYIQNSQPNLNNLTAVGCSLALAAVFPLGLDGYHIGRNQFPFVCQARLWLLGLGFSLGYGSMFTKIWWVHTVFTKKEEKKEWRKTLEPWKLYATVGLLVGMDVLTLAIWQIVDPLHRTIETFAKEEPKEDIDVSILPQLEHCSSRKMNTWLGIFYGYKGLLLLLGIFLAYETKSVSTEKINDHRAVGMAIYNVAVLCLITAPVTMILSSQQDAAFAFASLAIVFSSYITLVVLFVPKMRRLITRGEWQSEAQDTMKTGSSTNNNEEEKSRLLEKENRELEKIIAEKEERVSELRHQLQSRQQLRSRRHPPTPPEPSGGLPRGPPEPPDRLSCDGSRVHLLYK

[9] = molecular target: GABA-A receptor; anion channel (Rattus norvegicus) (UniProt O09028+P15431+P18506+P18508+P19969+P20236+P23574+P23576+P28471+P28473+P30191+P62813+P63079+P63138+Q91ZM7+Q9ES14); settings: Compound concentration 10.0 uM
[10] = species: Oryctolagus cuniculus; experiment: Inhibition of Purinergic P2X at 10 µM in the Eurofins-Panlabs radioligand binding assay (Eurofins_assay_268700); type: protein assay; settings: Compound concentration 10.0 uM
[11] = molecular target: Glutamate receptor 2 (Homo sapiens) (UniProt P42262); settings: Rattus norvegicus; Compound concentration 10.0 uM
[12] = molecular target: Sodium-dependent dopamine transporter (Homo sapiens) (UniProt Q01959); settings: Compound concentration 10.0 uM; remark: listed apart in the source
[13] = molecular target: B2 bradykinin receptor (Homo sapiens) (UniProt P30411); settings: Compound concentration 10.0 uM
Sequence of B2 bradykinin receptor (Homo sapiens) (P30411 whole entry): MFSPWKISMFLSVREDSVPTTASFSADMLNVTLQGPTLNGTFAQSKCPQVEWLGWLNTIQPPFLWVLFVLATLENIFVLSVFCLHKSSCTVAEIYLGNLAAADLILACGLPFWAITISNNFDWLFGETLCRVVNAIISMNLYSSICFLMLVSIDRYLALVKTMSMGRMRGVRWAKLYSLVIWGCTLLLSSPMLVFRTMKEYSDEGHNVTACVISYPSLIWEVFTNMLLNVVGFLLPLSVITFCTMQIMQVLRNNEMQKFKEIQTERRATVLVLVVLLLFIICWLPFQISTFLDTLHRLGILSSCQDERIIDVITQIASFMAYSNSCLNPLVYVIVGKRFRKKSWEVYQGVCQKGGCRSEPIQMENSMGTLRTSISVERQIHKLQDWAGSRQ

[14] = molecular target: Endothelin-1 receptor (Homo sapiens) (UniProt P25101); settings: Compound concentration 10.0 uM
[15] = molecular target: Muscarinic acetylcholine receptor M3 (Homo sapiens) (UniProt P20309); settings: Compound concentration 10.0 uM
Sequence of Muscarinic acetylcholine receptor M3 (Homo sapiens) (P20309 whole entry, looked up): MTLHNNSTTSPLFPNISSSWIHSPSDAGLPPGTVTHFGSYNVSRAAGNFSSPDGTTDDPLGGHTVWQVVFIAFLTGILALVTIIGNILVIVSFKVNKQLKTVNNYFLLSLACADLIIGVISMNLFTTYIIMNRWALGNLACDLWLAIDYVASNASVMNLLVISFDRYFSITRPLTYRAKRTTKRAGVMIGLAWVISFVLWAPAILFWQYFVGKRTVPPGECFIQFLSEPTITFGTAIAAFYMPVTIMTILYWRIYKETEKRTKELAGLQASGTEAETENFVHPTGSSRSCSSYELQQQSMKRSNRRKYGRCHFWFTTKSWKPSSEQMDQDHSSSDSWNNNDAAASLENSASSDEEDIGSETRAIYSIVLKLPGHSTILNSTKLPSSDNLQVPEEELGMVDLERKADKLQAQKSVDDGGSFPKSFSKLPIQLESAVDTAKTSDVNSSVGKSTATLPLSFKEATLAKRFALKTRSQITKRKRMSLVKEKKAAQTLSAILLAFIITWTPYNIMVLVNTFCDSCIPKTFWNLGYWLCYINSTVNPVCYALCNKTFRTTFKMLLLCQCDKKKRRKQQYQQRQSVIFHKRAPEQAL

[16] = molecular target: Cannabinoid receptor 1 (Homo sapiens) (UniProt P21554); settings: Compound concentration 10.0 uM
Sequence of Cannabinoid receptor 1 (Homo sapiens) (P21554 whole entry): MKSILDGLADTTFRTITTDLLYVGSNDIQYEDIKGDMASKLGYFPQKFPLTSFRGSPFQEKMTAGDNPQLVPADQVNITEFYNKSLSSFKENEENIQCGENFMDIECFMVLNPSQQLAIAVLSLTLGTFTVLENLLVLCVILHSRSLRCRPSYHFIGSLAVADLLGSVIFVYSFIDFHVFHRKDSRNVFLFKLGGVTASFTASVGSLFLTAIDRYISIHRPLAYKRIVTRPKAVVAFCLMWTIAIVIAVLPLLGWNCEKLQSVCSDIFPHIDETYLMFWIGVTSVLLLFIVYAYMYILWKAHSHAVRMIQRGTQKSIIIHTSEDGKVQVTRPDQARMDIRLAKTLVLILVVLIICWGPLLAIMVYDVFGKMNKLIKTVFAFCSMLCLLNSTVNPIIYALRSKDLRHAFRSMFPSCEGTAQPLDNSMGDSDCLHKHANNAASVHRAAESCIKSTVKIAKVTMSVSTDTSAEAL

[17] = molecular target: Type-2 angiotensin II receptor (Homo sapiens) (UniProt P50052); settings: Compound concentration 10.0 uM
[18] = molecular target: Histamine H4 receptor (Homo sapiens) (UniProt Q9H3N8); settings: Compound concentration 10.0 uM
[19] = molecular target: Glutamate NMDA receptor (Rattus norvegicus) (UniProt P35439+Q00959+Q00960+Q00961+Q62645+Q8VHN2+Q9R1M7); settings: Compound concentration 10.0 uM
[20] = molecular target: Beta-3 adrenergic receptor (Homo sapiens) (UniProt P13945); settings: Compound concentration 10.0 uM
[21] = molecular target: Prostaglandin F2-alpha receptor (Mus musculus, UniProt P43117); experiment: Bayer inhouse assay (mouse)
Sequence of Prostaglandin F2-alpha receptor (Mus musculus, UniProt P43117) (P43117 whole entry): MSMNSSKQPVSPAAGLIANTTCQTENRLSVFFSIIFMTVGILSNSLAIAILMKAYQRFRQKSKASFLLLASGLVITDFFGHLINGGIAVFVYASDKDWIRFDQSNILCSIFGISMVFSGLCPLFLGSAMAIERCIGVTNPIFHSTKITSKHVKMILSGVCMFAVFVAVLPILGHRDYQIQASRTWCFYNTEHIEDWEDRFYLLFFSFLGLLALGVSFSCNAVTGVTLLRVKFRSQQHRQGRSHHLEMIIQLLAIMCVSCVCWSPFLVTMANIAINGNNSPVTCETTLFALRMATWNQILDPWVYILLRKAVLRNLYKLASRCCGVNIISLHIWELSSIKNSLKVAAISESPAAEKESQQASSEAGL

[22] = molecular target: T2, Prostaglandin D2 receptor 2 (Homo sapiens) (UniProt Q9Y5Y4); experiment: Prostanoid CRTH2 Eurofins-Panlabs radioligand binding assay; parameters: ligand concentration 1 nM
T2 sequence (whole entry): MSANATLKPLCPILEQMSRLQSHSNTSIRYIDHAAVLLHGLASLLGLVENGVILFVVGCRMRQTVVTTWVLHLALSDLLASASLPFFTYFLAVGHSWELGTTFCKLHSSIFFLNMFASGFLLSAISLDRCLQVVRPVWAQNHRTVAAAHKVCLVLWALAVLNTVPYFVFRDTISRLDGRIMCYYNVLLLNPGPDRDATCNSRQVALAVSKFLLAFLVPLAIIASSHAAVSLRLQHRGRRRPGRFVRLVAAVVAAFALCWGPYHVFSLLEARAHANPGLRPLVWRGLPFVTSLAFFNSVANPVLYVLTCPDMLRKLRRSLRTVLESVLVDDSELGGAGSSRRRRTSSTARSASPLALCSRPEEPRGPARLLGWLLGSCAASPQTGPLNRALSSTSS

[23] = molecular target: Histamine H1 receptor (Homo sapiens) (UniProt P35367); settings: Compound concentration 10.0 uM
[24] = molecular target: B1 bradykinin receptor (Homo sapiens) (UniProt P46663); experiment: Inhibition of Bradykinin B1 at 10 µM in the Eurofins-Panlabs radioligand binding assay (Eurofins_assay_212510); settings: Compound concentration 10.0 uM

inhibition [1]: 14.1% | IC50 [2]: > 10000 nM (not active) | inhibition [3]: 33.5% | inhibition [4]: -3.2% | pKi ([5]; read-out: Ki): 6.23 | Ki ([5]; read-out: pKi (converted)): 537 nM
SMILES: Cc1c(N2CCNCC2)nc2ccc(Br)cc2c1C(=O)NC[C@H](CCC(=O)O)c1ccccc1Cl [BAY-403]

SMILES: Cc1c(N2CCCC2)nc2ccc(Br)cc2c1C(=O)NC[C@H](CCC(=O)O)c1ccccc1Cl [BAY-6672]
inhibition [6]: 6% | inhibition [7]: 3% | inhibition [8]: -4% | inhibition [9]: 26% | inhibition [10]: 25% | inhibition [11]: -3% | inhibition [12]: 15% | inhibition [13]: -6% | inhibition [14]: -1% | inhibition [15]: 8% | inhibition [16]: 10% | inhibition [17]: 2% | inhibition [18]: 13.1% | inhibition [19]: -5% | inhibition [20]: 4% | IC50 [21]: 5 nM (active) | inhibition ([22]; Compound concentration 0.001 uM): 3% | inhibition ([22]; Compound concentration 0.01 uM): 2% | inhibition ([22]; Compound concentration 0.1 uM): -3% | inhibition ([22]; Compound concentration 1.0 uM): -6% | inhibition ([22]; Compound concentration 10.0 uM): 19% | inhibition [23]: 15% | inhibition [24]: 7%
